assay: gradient 5% acetonitrile 3 min, to 50% in 2 min, to 85% in 15 min, held 3 min, 100 µL/min; conditions: column: Zorbax Extend-C18 2.1 x 50 mm; eluents: water / acetonitrile, 0.1% formic acid
Procedure, shortened: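 Retention times come from adduct peaks that were picked computationally and then checked by hand. The standards, pure and pooled in mixtures of ~100 molecules, were run on a Zorbax Extend-C18 column (2.1 × 50 mm, 1.8 μm) at 100 μL/min with water and acetonitrile, each with 0.1% formic acid. Detection was by quadrupole time-of-flight mass spectrometry in positive and negative ionization mode, with a dead volume of 40 μL and a dwell volume of 900 μL.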

Row | SMILES | RP-LC retention time [s]
1 | Cc1nc2cccnc2n1CC1CCCN(S(=O)(=O)c2ccc3c(c2)CCC3)C1 (centres undefined) | 765
2 | CCOc1ccccc1N1CCN(c2cc(C(=O)O)c3cc(NC(=O)C4CCCC4)ccc3n2)CC1 | 638
3 | CCOC(=O)Cn1c(C2CC(=O)N(c3ccc(Cl)cc3)C2)nc2ccccc21 (centres undefined) | 858
4 | Cc1oc2ncnc(N3CCCCC3)c2c1C(=O)N(CCN(C)C)Cc1ccccc1 | 568
5 | CCCC(NC(=O)c1cc(F)cc(F)c1)C(=O)Nc1nc2ccccc2[nH]1 (centres undefined) | 733
6 | Cc1noc(CC2CCOC3(CCN(C(=O)C4(c5ccccc5)CC4)CC3)C2)n1 (centres undefined) | 820
7 | Fc1ccccc1-c1ccc(CNCc2ccco2)o1 | 659
8 | CCc1cc(C(=O)Nc2ccc(OC)cc2)nc2ccnn12 | 917
9 | CCNC(=O)C1N(C(C)C)C(=O)C12CCCCC2 (centres undefined) | 630
10 | COc1ccc(-c2ncccc2CNS(=O)(=O)Cc2cc(F)cc(F)c2)cc1 | 694
11 | N#Cc1cccc(NC(=O)Cn2nc3n(c2=O)CCCC3)c1 | 638
12 | O=c1cccnn1CCCNS(=O)(=O)c1ccc(F)c(C(F)(F)F)c1 | 741
13 | N#Cc1ccc(C(=O)Nc2cnc(N3CCCCCC3)nc2)cc1 | 891
14 | CS(=O)(=O)N1CCCc2cc(C(=O)NCc3ccco3)ccc21 | 742
15 | Cc1noc(-c2cccnc2N2CCCN(Cc3cc(F)cc(F)c3)CC2)n1 | 659
16 | CC1=C2C3OC(=O)C(C)C3CCC2(C)C=C(Cl)C1=O (centres undefined) | 914
17 | COc1ccc(-c2noc(C3CCCN3C(=O)c3ccc(Cl)cc3)n2)cc1OC (centres undefined) | 959
18 | O=C(Nc1cnc(-c2ccc(Cl)cc2)nc1)c1cccs1 | 1040
19 | Cc1ccc(S(=O)(=O)N2CCC3(CC2)NCCN=C3NCc2cccc(F)c2)c(C)c1 | 750
20 | CCS(=O)(=O)c1ccc2c(c1)N(Cc1nc(-c3ccc(OC(C)C)cc3)no1)C(=O)CO2 | 991
21 | Cc1ccc(-c2cc(N3CCOCC3)c3cc(NC(=O)C4CC4)ccc3n2)cc1 | 701
22 | O=C(Cn1nc2c(N3CCSCC3)nccn2c1=O)Nc1ccc2c(c1)OCCO2 | 737
23 | CCOC(=O)c1ccc(NC(=O)C23CCC(C)(C(=O)C2)C3(C)C)cc1 (centres undefined) | 897

Row | SMILES | RP-LC retention time [s]
24 | COc1ccccc1Oc1c(C)oc2cc(OCC(=O)N[C@H](C)C(=O)O)ccc2c1=O | 710
25 | CCc1ccc(NC(=O)N2CCCC(Cn3cnc4cccnc43)C2)cc1 (centres undefined) | 733
26 | Cc1ccccc1NC(=O)C1C(=O)N(C)C2(C)CC1c1ccccc1O2 (centres undefined) | 991
27 | CCc1noc(NC(C)=O)c1-c1ccc(C)c(S(=O)(=O)Nc2ccc(Cl)cc2C)c1 | 888
28 | CCOc1cc(-c2noc(-c3ncn4c3COC(c3ccc(F)cc3)C4)n2)ccc1OC (centres undefined) | 1040
29 | Cn1cnc(S(=O)(=O)N2CC(Oc3ccc(-c4nc(-c5ccccc5)no4)cc3)C2)c1 | 983
30 | Cc1cc(C)c(CNC(=O)C2CCN(c3cnc4nccnc4c3)CC2)c(C)c1 | 793
31 | Cn1nc(-c2ccc(F)cc2)cc1C(=O)NCCN1CCN(C(=O)c2cccs2)CC1 | 593
32 | Cc1ccc(NS(=O)(=O)c2cc(-c3[nH]ncc3C(=O)N3CCOCC3)oc2C)cc1F | 695
33 | CNC(=O)Nc1ccc(C2(C(=O)Nc3ccc4c(c3)CCC4)CCC2)cc1 | 844
34 | CCSc1nnc(NC(=O)CCCn2nc(-c3ccc(OC)cc3)ccc2=O)s1 | 730
35 | CCN1C(=O)c2cccnc2Sc2cc(NC(=O)CCc3ccccc3)ccc21 | 950
36 | CC1(C(=O)NC2CCCC2)Cn2cnc(C(=O)NCCCc3ccccc3)c2C(=O)N1C1CC1 (centres undefined) | 823
37 | Cc1ccccc1OCC(=O)N1CCN(c2nc(CN3CCOCC3)cs2)CC1 | 653
38 | CCc1ccc(-c2noc(CN3C(=O)COc4ccc(S(=O)(=O)CC)cc43)n2)cc1 | 1000
39 | CCOC(=O)c1nc(Nc2ccccc2OCC)c2ccccc2n1 | 942
40 | Cc1ccc(NC(=O)c2[nH]c3cc(C)sc3c2CN(C)C)c(Cl)c1 | 708
41 | CC(C)c1nc(-c2ccc(C(=O)N3CCN(c4nc5cccnc5o4)CC3)cc2)no1 | 828
42 | CCN1C(=O)c2cccnc2Sc2cc(NC(=O)CCc3ccc(OC)cc3)ccc21 | 855
43 | CCC(C)(C)C(=O)N1CCCC(c2nc(CCNC(=O)C(C)C)cs2)C1 (centres undefined) | 783
44 | COc1cccc(NC(=O)C2(C)CCCCC(=O)N2)c1 (centres undefined) | 601
45 | Cc1cc(C)n(-c2nc(C)c(C(=O)Nc3ccccc3F)s2)n1 | 1120
46 | CCc1cc(=O)n(Cc2ccccc2C#N)c(N2CCCC2)n1 | 696

Row | SMILES | RP-LC retention time [s]
47 | Cc1ccc2c(C(=O)N3CCCCC3)cc(NC(=O)C3CCC3)cc2n1 | 632
48 | CCN1C(=O)c2cc(S(=O)(=O)Nc3ccc(C)cc3)ccc2Oc2cccnc21 | 970
49 | COc1ccccc1Nc1c(-c2ccc(Br)cc2)nc2cnccn12 | 1080
50 | CCCn1cc(CCNC(=O)Nc2cc(C)cc(C)c2)c2cccnc21 | 736
51 | CCOc1ccc(-c2cc(=O)n(CCCC(=O)N3CCN(S(C)(=O)=O)CC3)cn2)cc1 | 680
52 | O=C(Nc1cnc(-c2ccc(F)cc2)nc1)C1CC1 | 829
53 | O=C1C(N2CCCN(S(=O)(=O)c3cccc(Cl)c3)CC2)CCN1Cc1ccccc1 (centres undefined) | 718
54 | Cc1ccc(CCC(=O)Nc2ccc(SC(F)F)cc2)o1 | 919
55 | COc1ccc(NC(=O)c2c(O)c3cccnc3n(-c3ccccc3)c2=O)cc1 | 1200
56 | CC(C)N1CCN(C(=O)c2cn(-c3ccc(-c4nc(C(C)(C)C)no4)cn3)cn2)CC1 | 671
57 | COc1cccc(S(=O)(=O)N2CCN(C3=CC4=NC(C)CN4C=N3)CC2)c1 (centres undefined) | 648
58 | Cc1ccc(Cc2nnc(NC(=O)c3cc(C)n(C(C)C)n3)o2)cc1 | 802
59 | COC1C(=O)N(c2cccc(F)c2)C12CCN(S(=O)(=O)c1cccs1)CC2 (centres undefined) | 937
60 | CCn1cc(S(=O)(=O)Nc2ccc(OC)cc2)c2cccnc21 | 786
61 | COc1ccc(C(=O)N2CCCC2c2nc(-c3ccc(OC)c(OC)c3)no2)cc1 (centres undefined) | 848
62 | Cc1nn(C)c2nc(OCC(=O)Nc3ccccc3Cl)cc(C(F)(F)F)c12 | 1130
63 | CCc1ccc(S(=O)(=O)N2CCN(C3CCN(CCC(C)C)C3=O)CC2)cc1 (centres undefined) | 736
64 | COc1cc(OC)cc(C(=O)N2CCC3(CC2)NC(=O)c2ccccc2N3C)c1 | 734
65 | CC1(C(=O)NCc2cccc(F)c2)CCCN(S(=O)(=O)c2ccc(F)cc2)C1 (centres undefined) | 948
66 | Cc1ccccc1NS(=O)(=O)c1cc(-c2[nH]ncc2C(=O)N(C)C)oc1C | 673
67 | Cc1ncc2c(n1)CCN(S(=O)(=O)c1ccc(Br)s1)C2 | 778
68 | CC(C)Cn1c(=O)c(C(=O)NCc2ccccc2)nc2cccnc21 | 915
69 | Cc1cccc(N2CCN(Cc3nc(-c4ccc(N5CCCC(C)C5)nc4)no3)CC2)c1C (centres undefined) | 1260

Row | SMILES | RP-LC retention time [s]
70 | O=C(c1ccoc1)N1CCc2[nH]cnc2C1c1ccccc1 (centres undefined) | 585
71 | CCc1nc(NCc2ccc(OC)c(OC)c2)ncc1C(=O)O | 682
72 | Cc1ccc2[nH]cc(CCNC(=O)c3c(-c4ccccn4)noc3C)c2c1 | 964
73 | O=C(CN1CCN(Cc2ccccc2)C1=O)NCc1cccc(Cl)c1 | 822
74 | Cc1ccc(S(=O)(=O)N2CCc3nc(-c4ccc(Cl)cc4)ncc3C2)cc1 | 1150
75 | Cc1nc(C)c(C(=O)Nc2ccc(C)c(F)c2)s1 | 860
76 | COc1cccc(C(=O)NC(NC(=O)c2cccc(OC)c2)c2ccc3c(c2)OCO3)c1 | 758
77 | COCCCn1c(=O)c2ccccc2n(Cc2nc(-c3cccc(C)c3)no2)c1=O | 855
78 | CC1=C(c2ccc(C)c(C)c2)S(=O)(=O)N=C1N1CCC(NC(=O)C2CCCO2)CC1 (centres undefined) | 788
79 | COc1ccc(S(=O)(=O)N2CC=C(c3cn(C)c4ncccc34)CC2)cc1Cl | 1010
80 | Cc1ccccc1NC(=O)N1CCC2(CC1)Nc1ccccc1-n1cccc12 | 982
81 | O=C(Nc1ccc2c(c1)OCCO2)N1CCCn2nc(-c3cccs3)cc2C1 | 777
82 | Cc1c(C(=O)NC(C)C)cnn1-c1ccc(-c2nc(C(C)(C)C)no2)cn1 | 1020
83 | Cc1cnc(C2CN(Cc3cccc(OC(F)(F)F)c3)C2)n1CC1CC1 | 594
84 | COc1ccc2c(c1)CCc1sc(NC(=O)c3ccccc3F)nc1-2 | 1090
85 | CCN1c2ccc(F)cc2C(=O)NC12CCN(C(=O)c1cc(F)cc(F)c1)CC2 | 1030
86 | Cc1noc(C)c1-c1ccc(S(=O)(=O)Nc2ccc(F)cc2)cc1 | 904
87 | O=C(Nc1ccc(N2CCN(c3ccccc3)C2=O)nc1)c1ccc(Br)o1 | 892
88 | COc1ccc(S(=O)(=O)NCc2c(-c3ccccc3)nc3sc(C)nn23)cc1Cl | 912
89 | Fc1ccc(-c2noc(-c3ccc(N4CCOCC4)nc3)n2)cc1 | 1080

Source: the METLIN SMRT retention time set (Domingo-Almenara et al. 2019)
